{
  "source": "patent US7638540B2",
  "about": "“Benzofuran compound and medicinal composition containing the same” (The New Industry Research Organization, priority 2003, dated 2009)",
  "data": [
    {"units": {"melting point": "°C"}, "values": [
      {"smiles": "COc1ccc(/C=C/C(=O)Nc2c(C(C)=O)oc3ccc(Br)cc23)cc1", "note": "[Example 178, (E)-N-(2-acetyl-5-bromobenzofuran-3-yl)-3-(4-methoxyphenyl)acrylamide]", "melting point": "182.5 to 184.7"},
      {"smiles": "CC(=O)c1oc2ccc(Br)cc2c1NC(=O)/C=C/CCc1ccccc1", "note": "[Example 175, (E)-5-phenyl-2-penteneoic acid (2-acetyl-5-bromobenzofuran-3-yl)amide]", "melting point": "129 to 131"},
      {"smiles": "CC(=O)c1oc2ccc(Br)cc2c1NC(=O)CC#N", "note": "[Example 193, N-(2-acetyl-5-bromobenzofuran-3-yl)-2-cyanoacetamide]", "melting point": "214.4 to 215.1"},
      {"smiles": "CCCCc1oc2ccccc2c1/C(C)=C/C(=O)NCCc1ccc(OC)c(OC)c1", "note": "[Example 157, (E)-3-(2-butylbenzofuran-3-yl)-2-butenoic acid [2-(3,4-dimethoxyphenyl)ethyl]amide]", "melting point": "95 to 99"},
      {"smiles": "CCOC(=O)C(CSCc1ccccc1)NC(=O)/C=C/C=C(\\Cl)c1cc2cc(Br)ccc2o1", "note": "(centres unmarked) [Example 64, Ethyl (2E,4Z)-3-benzylsulfanyl-2-[5-(5-bromobenzofuran-2-yl)-5-chloropenta-2,4-dienoylamino]propionate]", "melting point": "133.7 to 135.4"},
      {"smiles": "CCNS(=O)(=O)c1ccc(OCCCC(=O)OCC)c2oc(C(C)NC(=O)/C(C#N)=C(\\C)O)cc12", "note": "(centres unmarked) [Example 128, Ethyl (E)-4-{2-[1-(2-cyano-3-hydroxy-2-butenoylamino)ethyl]-4-ethylsulfamoylbenzofuran-7-yloxy}butyrate]", "melting point": "121 to 122.1"},
      {"smiles": "C/C(=C\\C(=O)N1CCOCC1)c1ccc2oc(C(=O)c3ccccc3)cc2c1", "note": "[Example 25, (E)-3-(2-benzoylbenzofuran-5-yl)-1-morpholino-2-buten-1-one]", "melting point": "115.5 to 117"},
      {"smiles": "COc1cccc2cc(C(C)NC(C)=O)oc12", "note": "(centres unmarked) [Example 191, N-[1-(7-methoxybenzofuran-2-yl)ethyl]acetamide]", "melting point": "90 to 91.8"},
      {"smiles": "COc1cccc2cc(/C(Cl)=C/C=C/C(=O)N3CCOCC3)oc12", "note": "[Example 138, (2E,4Z)-5-chloro-5-(7-methoxybenzofuran-2-yl)-1-morpholin-4-ylpenta-2,4-dien-1-one]", "melting point": "185.4 to 186.6"},
      {"smiles": "COc1cccc2c(NC(=O)/C=C/c3ccccc3)c(C(C)=O)oc12", "note": "[Example 182, (E)-N-(2-acetyl-7-methoxybenzofuran-3-yl)-3-phenylacrylamide]", "melting point": "160.6 to 161.1"},
      {"smiles": "COc1ccc(NC(=O)/C=C(\\C)c2cc3cccc(OC(c4ccccc4)c4ccccc4)c3o2)cc1OC", "note": "[Example 45, (E)-3-(7-benzhydryloxybenzofuran-2-yl)-N-(3,4-dimethoxyphenyl)-2-butenamide]", "melting point": "93.9 to 94.5"},
      {"smiles": "N#C/C=C/C=C(\\Cl)c1cc2cc(Br)ccc2o1", "note": "[Example 154, (2E,4Z)-5-(5-bromobenzofuran-2-yl)-5-chloropenta-2,4-dienenitrile]", "melting point": "179 to 185"},
      {"smiles": "C/C=C/C(=O)NC(C)c1cc2ccccc2o1", "note": "(centres unmarked) [Example 192, (E)-2-butenoic acid (1-(benzofuran-2-yl)ethyl)amide]", "melting point": "98 to 100"},
      {"smiles": "COc1ccc(/C=C/C(=O)c2oc3ccc(Br)cc3c2NC(=O)CNCc2ccccc2)cc1", "note": "[Example 196, (E)-2-benzylamino-N-{5-bromo-2-[3-(4-methoxyphenyl)acryloyl]benzofuran-3-yl}acetamide]", "melting point": "174.2 to 176.5"},
      {"smiles": "COc1cccc2c(NC(=O)/C=C/c3ccccc3)c(C(=O)c3ccc(Br)cc3)oc12", "note": "[Example 179, (E)-N-[2-(4-bromobenzoyl)-7-methoxybenzofuran-3-yl]-3-phenylacrylamide]", "melting point": "236.5 to 237.8"},
      {"smiles": "C/C(O)=C(\\C#N)C(=O)Nc1c(C#N)oc2ccc(Br)cc12", "note": "[Example 104, (Z)-N-(5-bromo-2-cyanobenzofuran-3-yl)-2-cyano-3-hydroxy-2-butenamide]", "melting point": "206.3 to 208.3"},
      {"smiles": "COc1ccc2c(NC(=O)c3cnoc3C)c(C(C)=O)oc2c1", "note": "[Example 83, N-(2-acetyl-6-methoxybenzofuran-3-yl)-5-methylisoxazole-4-carboxamide]", "melting point": "168.2 to 170.1"},
      {"smiles": "CCN(CC)C(=O)/C=C(/C)c1oc2ccc(Br)cc2c1C", "note": "[Example 153, (Z)-3-(5-bromo-3-methylbenzofuran-2-yl)-2-butenoic acid diethylamide]", "melting point": "60.1 to 62"},
      {"smiles": "COc1ccc(NC(=O)/C=C(\\C)c2cc3cccc(OC(C)c4ccccc4)c3o2)cc1", "note": "(centres unmarked) [Example 172, (E)-3-[7-(1-phenylethoxy)benzofuran-2-yl]-2-butenoic acid (4-methoxyphenyl)amide]", "melting point": "120 to 125"},
      {"smiles": "C/C(O)=C(\\C#N)C(=O)NC(C)c1cc2cccc(OCCCC(=O)O)c2o1", "note": "(centres unmarked) [Example 126, (Z)-4-{2-[1-(2-cyano-3-hydroxy-2-butenoylamino)ethyl]benzofuran-7-yloxy}butyric acid]", "melting point": "147.9 to 148.6"},
      {"smiles": "O=C(/C=C/c1ccccc1)Nc1c(C(=O)c2ccc(Cl)cc2)oc2ccc(Br)cc12", "note": "[Example 113, (E)-N-[5-bromo-2-(4-chlorobenzoyl)benzofuran-3-yl]-3-phenylacrylamide]", "melting point": "171.2 to 171.8"},
      {"smiles": "COc1ccc2oc(-c3nc(N=CN(C)C)sc3C=O)c(-c3ccc(Cl)cc3)c2c1", "note": "[Example 221, N′-{4-[3-(4-chlorophenyl)-5-methoxybenzofuran-2-yl]-5-formylthiazol-2-yl}-N,N-dimethylformamidine]", "melting point": "203.5 to 205"},
      {"smiles": "COC(=O)COc1cccc2cc(C(C)NC(=O)c3cnoc3C)oc12", "note": "(centres unmarked) [Example 124, Methyl (2-{1-[(5-methylisoxazole-4-carbonyl)amino]ethyl}benzofuran-7-yloxy)acetate]", "melting point": "111.8 to 114.6"},
      {"smiles": "O=C(O)CCCOc1cccc2cc(C(Cl)=CC=CC(=O)N3CCOCC3)oc12", "note": "(stereo in doubt) [Example 147, (2E,4Z)-4-[2-(1-chloro-5-morpholin-4-yl-5-oxo-penta-1,3-dienyl)benzofuran-7-yloxy]butyric acid]", "melting point": "152.5 to 154.8"},
      {"smiles": "CCOC(=O)/C=C(\\C)c1ccc2oc(/C(Cl)=C/C=O)cc2c1", "note": "[Example 146, Ethyl 3-[2-(1-chloro-3-oxo-(Z)-propenyl)benzofuran-5-yl]-(E)-2-butenoate]", "melting point": "99.5 to 101"},
      {"smiles": "CCN(CC)C(=O)/C=C(\\C)c1cc(Cl)cc2cc(C(C)=O)oc12", "note": "[Example 170, (E)-3-(2-acetyl-5-chloro-benzofuran-7-yl)-2-butenoic acid diethylamide]", "melting point": "116 to 117.5"},
      {"smiles": "CCc1c(/C(C)=C/C(=O)NCCc2ccc(OC)c(OC)c2)oc2ccccc12", "note": "[Example 167, 3-(3-ethylbenzofuran-2-yl)-2-butenoic acid [2-(3,4-dimethoxyphenyl)ethyl]amide]", "melting point": "131 to 135"},
      {"smiles": "CC(=O)c1oc2ccc(Br)cc2c1NC(=O)/C(C#N)=C(/C)O", "note": "[Example 96, (Z)-N-(2-acetyl-5-bromobenzofuran-3-yl)-2-cyano-3-hydroxy-2-butenamide]", "melting point": "221.9 to 222.4"},
      {"smiles": "COc1ccc(NC(=O)c2cnoc2C)c2cc(C(C)=O)oc12", "note": "[Example 111, N-(2-acetyl-7-methoxybenzofuran-4-yl)-5-methylisoxazole-4-carboxamide]", "melting point": "201.8 to 205.9"},
      {"smiles": "COc1ccc(CCNC(=O)/C=C(\\C)c2ccc3oc(C(=O)c4ccccc4)cc3c2)cc1OC", "note": "[Example 24, (E)-3-(2-benzoylbenzofuran-5-yl)-N-[2-(3,4-dimethoxyphenyl)ethyl]-2-butenamide]", "melting point": "126.9 to 129.4"},
      {"smiles": "COc1ccc(CCNC(=O)/C=C(\\C)c2cc3cccc(OC(C)c4ccccc4)c3o2)cc1OC", "note": "(centres unmarked) [Example 164, (E)-3-[7-(1-phenylethoxy)benzofuran-2-yl]-2-butenoic acid [2-(3,4-dimethoxyphenyl)ethyl]amide]", "melting point": "109 to 113"},
      {"smiles": "N#CCC(=O)Nc1c(C(=O)c2ccc(Cl)cc2)oc2ccc(Br)cc12", "note": "[Example 197, N-[5-bromo-2-(4-chlorobenzoyl)benzofuran-3-yl]-2-cyanoacetamide]", "melting point": "245.4 to 249.5"},
      {"smiles": "CC(=O)c1oc2ccc(/C(C)=C/C(=O)N3CCOCC3)cc2c1NC(=O)/C(C#N)=C(/C)O", "note": "[Example 108, N-[2-acetyl-5-(1-methyl-3-morpholino-3-oxo-(E)-1-propenyl)benzofuran-3-yl]-2-cyano-3-hydroxy-(Z)-2-butenamide]", "melting point": "206.9 to 208.6"},
      {"smiles": "C/C(O)=C(\\C#N)C(=O)Nc1c(C(N)=O)oc2ccccc12", "note": "[Example 101, (Z)-3-(2-cyano-3-hydroxy-2-butenoylamino)benzofurane-2-carboxamide]", "melting point": 265},
      {"smiles": "COc1ccc2oc(-c3csc(C)n3)c(-c3ccc(Cl)cc3)c2c1", "note": "[Example 217, 4-[3-(4-chlorophenyl)-5-methoxybenzofuran-2-yl]-2-methylthiazole]", "melting point": "105.8 to 106.5"},
      {"smiles": "COc1ccc(NC(=O)/C=C(/C)c2cc3cccc(OC(c4ccccc4)c4ccccc4)c3o2)cc1OC", "note": "[Example 43, (Z)-3-(7-benzhydryloxybenzofuran-2-yl)-N-(3,4-dimethoxyphenyl)-2-butenamide]", "melting point": "93.9 to 94.5"},
      {"smiles": "C/C(O)=C(\\C#N)C(=O)Nc1c(C(=O)c2ccc(C#N)cc2)oc2ccc(Br)cc12", "note": "[Example 100, (Z)-N-[5-bromo-2-(4-cyanobenzoyl)benzofuran-3-yl]-2-cyano-3-hydroxy-2-butenamide]", "melting point": "269.3 to 271.2"},
      {"smiles": "CCOC(=O)/C=C/C=C(\\Cl)c1cc2cccc(OC)c2o1", "note": "[Example 62, Ethyl (2E,4Z)-5-chloro-5-(7-methoxybenzofuran-2-yl)penta-2,4-dienoate]", "melting point": "113.9 to 117.6"},
      {"smiles": "Cc1oncc1C(=O)Nc1c(C(=O)c2ccc(Cl)cc2)oc2ccc(Br)cc12", "note": "[Example 77, N-[5-bromo-2-(4-chlorobenzoyl)benzofuran-3-yl]-5-methylisoxazole-4-carboxamide]", "melting point": "240.8 to 243.2"},
      {"smiles": "COc1ccc(NC(=O)/C=C(\\C)c2cc3cccc(OC(c4ccccc4)c4ccccc4)c3o2)cc1", "note": "[Example 41, (E)-3-(7-benzhydryloxybenzofuran-2-yl)-N-(4-methoxyphenyl)-2-butenamide]", "melting point": "191.8 to 193.6"},
      {"smiles": "C/C(=C\\C(=O)N1CCOCC1)c1ccc2oc(/C(C)=C/C(=O)O)cc2c1", "note": "[Example 136, (E,E)-3-[5-(1-methyl-3-morpholin-4-yl-3-oxopropenyl)benzofuran-2-yl]-2-butenoic acid]", "melting point": "202.6 to 204.4"}
    ]}
  ]
}
